Paper PMC6482291, “Anticonvulsant Activity of Pterostilbene in Zebrafish and Mouse Acute Seizure Tests” (Neurochemical Research, 2019)

Assays:
[1] = tested on: PTZ-induced seizure-like behavior in zebrafish larvae; experiment: Larval zebrafish PTZ seizure assay, locomotor activity tracking; format: in vivo, Danio rerio; settings: 10 µM PTE, 2 h incubation, 20 mM PTZ; vs vehicle + PTZ
Protocol: The locomotor activity of larvae was assessed as previously described. A single 117 hpf zebrafish larvae was placed in a 48-well plate (one larva per well) filled with 200 µl of vehicle or PTE solution (10 µM). Subsequently, larvae were incubated for 2 h, at 28.5 °C. Next, 100 µl of vehicle or PTZ was added to each well. Within 5 min, plates were positioned in an automated tracking device (ZebraBox, Viewpoint, Lyon, France) and larvae were tracked for 30 min, with a 5 min integration interval. All measurements were performed at the same daytime period. The […] distance (in millimeters) covered by each larva was recorded. Three independent experiments were done (n = 12/group) and the data were pooled together. […] The data were normalized against PTZ values.

[2] = tested on: PTZ-induced epileptiform discharges in zebrafish larvae; experiment: Electrographic discharge assessment (LFP recordings from optic tectum) in zebrafish larvae exposed to PTZ; format: in vivo, Danio rerio; settings: 10 µM PTE, 2 h incubation, 20 mM PTZ, 20 min recording
Protocol: For local field potential (LFP) recordings, zebrafish larvae were incubated for 2 h, as described above. After incubation, larvae were exposed to vehicle or 20 mM PTZ for 5 min. Thereafter, larvae were immobilized in a thin layer of 2% low-melting-point agarose and the glass electrode (resistance […]) filled with artificial cerebrospinal fluid (124 mM NaCl, 2 mM KCl, 2 mM MgSO4, 2 Mm CaCl2, 1.25 mM KH2PO4, 26 mM NaHCO3, 10 mM glucose) was placed into the optic tectum (MultiClamp 700B amplifier, Digidata 1440A digitizer, Axon instruments, USA). Single recordings for each larva were performed for a period of 20 min. The discharges were analyzed according to the duration of spiking paroxysms and only those where the amplitude exceeded three times the background noise were taken into account. The data were analyzed with the aid of Clampfit 10.2 software (Molecular Devices Corporation, USA).

## COc1cc(/C=C/c2ccc(O)cc2)cc(OC)c1 [PTE, trans-3,5-dimethoxy-4′-hydroxy-trans-stilbene]
[1]
  PTZ-induced locomotor activity in zebrafish larvae: significantly reduced
[2]
  mean duration of ictal-like discharges: statistically significant reduction
[2]; vs vehicle
  number of epileptiform discharges in the zebrafish brain: significantly reduced
  total duration of epileptiform discharges in the zebrafish brain: significantly reduced
